Patent publication US20030092037A1, “Elk1 phosphorylation related gene” (priority 2001, published 2003)

Tested on: MAP kinase cascade activating protein according to SEQ ID NO: 4, 6, 12, 16, 18, 22, 26, 28, 30, 44, 50, 52, 60, 68, 72, 104, 110, 112, 116, 122, 132, 142, 146 …
Assay: Screening for inhibitors in 293-EBNA reporter systems expressing MAP kinase cascade activating proteins
Assay type: cell-based, human
Conditions: compound 10 μM; 50 ng expression plasmid; 24 hours; all 27 SEQ ID NO systems
Procedure: (in the presence of 5% CO2). Then, using FuGENE6 (Roche), 50 ng of each of the expression plasmids obtained in Example 2 above which comprise a gene encoding the MAP kinase cascade activating protein according to SEQ ID NO: 4, 6, 12, 16, 18, 22, 26, 28, 30, 44, 50, 52, 60, 68, 72, 104, 110, 112, 116, 122, 132, 142, 146, 148, 150, 152 or 154 were respectively co-transfected in a well with 60 ng of pFR-Luc ([…]), 0.25 ng of pFA2-Elk1 ([…]), 5 ng of pcDNA 3.1 (+) (INVITROGEN) into which human p38 gene had been incorporated and 30 ng of pcDNA 3.1 (+) (INVITROGEN) into which human JNJ1 β 1 gene had been incorporated. The method used for introduction was in accordance with the attached protocol. After culturing for 2 hours at 37° C., any one of 1000 types of compound that were held in stock, was added to a final concentration of 10 μM per well, and after further culturing for 24 hours at 37° C., reporter activity, which reflects MAP kinase cascade activition, was measured by Picagene LT2 (purchased from Toyo Ink Manufacturing) in accordance with the manufacturer's instructions. Using a well to which no compound was added as a control, compounds were screened to identify a compound which reduced reporter activity in the well to which it was added to 50% or lower. […]

CN[C@@H]1C[C@H]2O[C@@](C)([C@@H]1OC)n1c3ccccc3c3c4c(c5c6ccccc6n2c5c31)C(=O)NC4 [staurosporine]
reporter activity relative to control well to which no compound was added: ≤ 50%
